Like-named read-outs stand apart in the source and are kept apart here.
Key:
HIV NL4.3 strain = test: HIV infectivity assay, reporter cell line HeLa-CD4-LTR-LacZ, β-Gal activity (Tat protein inhibition); type: cell-based, HIV-1 (NL4.3); conditions: for IC50: Human immunodeficiency virus 1, read-out: Infectivity IC50, HeLa-CD4-LTR-LacZ
Method: (§1) Next, the activity of these leads against HIV infection was evaluated using the reporter cell line HeLa-CD4-LTR-LacZ, which stably expresses the β-galactosidase (β-Gal) gene under the control of the HIV 5′ LTR. The HIV NL4.3 strain was used for these studies and β-Gal activity was measured 72 hrs post infection (FIG. 3A). Cytotoxicity assays using Cell-Titer-Glo were performed in parallel to assess cell viability (FIG. 3A). […] Their anti-HIV activity was further assessed in acute replication of Jurkat T cells with the NL4.3 strain (FIG. 3A). […] These OM10.1 cells contain a single integrated wild-type provirus, while ACH-2 cells contain a single integrated provirus with a TAR mutation C37T, defective Tat-TAR feedback loop (FIG. 3B).

[1] = Cytotoxicity assay, Cell-Titer-Glo, HeLa-CD4-LTR-LacZ; conditions: human, hela-cd4-ltr-lacz cells, Infectivity CC50, HeLa-CD4-LTR-LacZ
Method: as §1

[2] = HeLa-CD4 cell NL4.3 infection assays

Row | SMILES | IC50 (HIV NL4.3 strain; analogs of TT-44881 (Table 1)) [µM] | CC50 ([1]; analogs of TT-44881 (Table 1)) [µM] | IC50 (HIV NL4.3 strain; analogs of TT-44863 (Table 2)) [µM] | CC50 ([1]; analogs of TT-44863 (Table 2)) [µM] | also measured
1 | Cc1cc(C(=O)NCCCN2CCCC2=O)nn1-c1ccccc1 [GB-14] | > 100 | > 100 | – | – | –
2 | Cc1cc(C(=O)N(C)CCCN2CCCC2=O)nn1-c1ccccc1 [GB-15] | > 100 | > 100 | – | – | –
3 | CCN(CCCN1CCCC1=O)C(=O)c1cc(C)n(-c2ccccc2)n1 [GB-16] | > 100 | > 100 | – | – | –
4 | CCCN(CCCN1CCCC1=O)C(=O)c1cc(C)n(-c2ccccc2)n1 [GB-17] | > 100 | > 100 | – | – | –
5 | COc1ccc(C(F)(F)F)cc1NC(=O)Cn1cc(C(F)(F)F)cc(Cl)c1=O [TT-46600] | – | – | 1 to 10 | > 100 | increase of potency vs TT-44863 (HIV NL4.3 strain; [2]): ~ 5 fold
6 | COc1ccc(Cl)cc1NC(=O)Cn1cc(C(F)(F)F)cc(Cl)c1=O [TT-46603] | – | – | 20 to 30 | 50 to 100 | decrease of potency vs TT-44863 (HIV NL4.3 strain; [2]): ~ 5 fold
7 | CC(NC(=O)C(c1ccccc1)c1ccccc1)c1ccc(-n2ccnc2)cc1 (stereo not shown) [Z27307031] | – | – | – | – | IC50 (HIV NL4.3 strain; analogs of TT-44856 (Table 3)): 1 to 20 µM; CC50 ([1]; analogs of TT-44856 (Table 3)): > 100 µM
8 | Cc1ccc(CC(=O)NCCCn2cnc3ccccc32)cc1 [Z102452176] | – | – | – | – | IC50 (HIV NL4.3 strain; analogs of TT-44856 (Table 3)): 10 to 30 µM; CC50 ([1]; analogs of TT-44856 (Table 3)): > 100 µM
9 | COc1ccc(NC(=O)Cn2cc(C(F)(F)F)cc(Cl)c2=O)cc1C(F)(F)F [compound 44] | – | – | > 100 | > 100 | –
10 | COc1ccc(OC(F)(F)F)cc1NC(=O)Cn1cc(C(F)(F)F)cc(Cl)c1=O [compound 45] | – | – | 1 to 10 | > 100 | –
11 | CC(C)(C)OC(=O)COCCOCCOc1ccc(C(F)(F)F)cc1NC(=O)Cn1cc(C(F)(F)F)cc(Cl)c1=O [compound 47] | – | – | 50 to 100 | > 100 | –
12 | O=C(O)COCCOCCOc1ccc(C(F)(F)F)cc1NC(=O)Cn1cc(C(F)(F)F)cc(Cl)c1=O [compound 48] | – | – | > 100 | > 100 | –
13 | COc1ccc(C(F)(F)F)cc1NC(=O)C(C)n1cc(C(F)(F)F)cc(Cl)c1=O (stereo not shown) [compound 49] | – | – | 1 to 20 | > 100 | –
14 | O=C(Cn1cc(C(F)(F)F)cc(Cl)c1=O)Nc1cc(C(F)(F)F)ccc1OCCN1CCOCC1 [compound 51] | – | – | 1 to 10 | 50 to 100 | –
15 | CN1CCN(CCOc2ccc(C(F)(F)F)cc2NC(=O)Cn2cc(C(F)(F)F)cc(Cl)c2=O)CC1 [compound 52] | – | – | 10 to 20 | 25 to 50 | –
16 | CCOCCOCCOc1ccc(C(F)(F)F)cc1NC(=O)Cn1cc(C(F)(F)F)cc(Cl)c1=O [compound 55] | – | – | 1 to 20 | > 100 | –
17 | COc1ccc(C(F)(F)F)cc1NC(=O)C(CCO)n1cc(C(F)(F)F)cc(Cl)c1=O (stereo not shown) [compound 60] | – | – | 10 to 50 | 10 to 30 | –
18 | COc1cc(NC(=O)Cn2cc(C(F)(F)F)cc(Cl)c2=O)cc(C(F)(F)F)c1 [compound 61] | – | – | > 100 | > 100 | –
19 | O=C(O)c1ccc(CNC(=O)c2cn(-c3ccccc3)c3ccccc23)cc1 [compound 41784] | > 100 | > 100 | – | – | –
20 | CS(=O)(=O)N1CCN(C(=O)c2cn(-c3ccccc3)c3ccccc23)CC1 [compound 41798] | > 100 | > 100 | – | – | –
21 | NS(=O)(=O)c1ccc(CCNC(=O)c2cn(-c3ccccc3)c3ccccc23)cc1 [compound 41799] | 5 to 20 | > 100 | – | – | –
22 | N#Cc1ccc(NC(=O)c2cn(-c3ccccc3)c3ccccc23)cc1 [compound 41905] | 1 to 10 | 1 to 10 | – | – | –

Row | SMILES | IC50 (HIV NL4.3 strain; analogs of TT-44881 (Table 1)) [µM] | CC50 ([1]; analogs of TT-44881 (Table 1)) [µM] | IC50 (HIV NL4.3 strain; analogs of TT-44863 (Table 2)) [µM] | CC50 ([1]; analogs of TT-44863 (Table 2)) [µM] | also measured
23 | O=C(NCc1ccccc1N1CCCCC1)c1cn(-c2ccccc2)c2ccccc12 [compound 41924] | > 100 | > 100 | – | – | –
24 | CC(=O)c1cccc(CNC(=O)c2cn(-c3ccccc3)c3ccccc23)c1 [compound 41967] | > 100 | > 100 | – | – | –
25 | N#Cc1ccc(CNC(=O)c2cn(-c3ccccc3)c3ccccc23)cc1 [compound 41969] | 12.4 | > 100 | – | – | –
26 | O=C(NCc1ccc(Cl)cn1)c1cn(-c2ccc(F)cc2)c2ccccc12 [compound 41980] | > 100 | 35.6 | – | – | –
27 | O=C(O)c1ccc(C2(NC(=O)c3cn(-c4ccc(F)cc4)c4ccccc34)CC2)cc1 [compound 42097] | > 100 | > 100 | – | – | –
28 | CCN(CC(=O)Nc1cc(C(F)(F)F)ccc1OCCOC)C(=O)Cc1ccccc1 [compound 45172] | – | – | ~80 | ~80 | –
29 | O=C(NCCCN1CCCC1=O)c1ccn(-c2ccccc2)n1 [compound 45732] | > 100 | > 100 | – | – | –
30 | CCOc1ccccc1NC(=O)Cn1c(C)cc(COC)c(C#N)c1=O [compound 46602] | – | – | > 100 | > 100 | –
31 | CCOc1ccccc1NC(=O)Cn1cc(C(F)(F)F)cc(Cl)c1=O [compound 46604] | – | – | > 100 | > 100 | –
32 | COc1ccccc1NC(=O)Cn1cc(C(F)(F)F)cc(Cl)c1=O [compound 46605] | – | – | > 100 | > 100 | –
33 | O=C(c1nn(-c2ccccc2)c2c1CCC2)N1CCCC1 [compound 46607] | > 100 | > 100 | – | – | –
34 | O=C(NCCCn1ccnc1)C(c1ccccc1)c1ccccc1 [compound 46608] | – | – | – | – | IC50 (HIV NL4.3 strain; analogs of TT-44856 (Table 3)): 1 to 10 µM; CC50 ([1]; analogs of TT-44856 (Table 3)): > 100 µM
35 | O=C(Cn1cc(C(F)(F)F)cc(Cl)c1=O)Nc1cccc2c1OCCO2 [compound 46615] | – | – | > 100 | > 100 | –
36 | COCCOc1ccccc1NC(=O)Cn1cc(C(F)(F)F)cc(Cl)c1=O [compound 46624] | – | – | > 100 | > 100 | –
37 | COCCOc1ccccc1NC(=O)Cn1cccc(Cl)c1=O [compound 46631] | – | – | > 100 | > 100 | –
38 | COc1ccccc1CNC(=O)Cn1cc(C(F)(F)F)cc(Cl)c1=O [compound 46688] | – | – | > 100 | > 100 | –
39 | COc1ccc(C)cc1NC(=O)Cn1cc(C(F)(F)F)cc(Cl)c1=O [compound 46689] | – | – | > 100 | > 100 | –
40 | COCCOc1ccc(C(F)(F)F)cc1NC(=O)Cn1cccc(Cl)c1=O [compound 46704] | – | – | > 100 | > 100 | –
41 | O=C(NCCCN1CCCC1=O)c1nn(-c2ccccc2)c2ccccc12 [compound 46715] | 50 to 100 | > 100 | – | – | –
42 | O=C(NCCCn1ccnc1)c1n[nH]c2c1CCC2 [compound 46726] | > 100 | > 100 | – | – | –
43 | O=C(NCCCN1CCCC1=O)c1n[nH]c2c1CCC2 [compound 46727] | > 100 | > 100 | – | – | –
44 | COc1ccccc1CNC(=O)Cn1cccc(Cl)c1=O [compound 46747] | – | – | > 100 | > 100 | –

Row | SMILES | IC50 (HIV NL4.3 strain; analogs of TT-44881 (Table 1)) [µM] | CC50 ([1]; analogs of TT-44881 (Table 1)) [µM] | IC50 (HIV NL4.3 strain; analogs of TT-44863 (Table 2)) [µM] | CC50 ([1]; analogs of TT-44863 (Table 2)) [µM] | also measured
45 | O=C(Cn1cc(C(F)(F)F)cc(Cl)c1=O)Nc1cccc(C(F)(F)F)c1 [compound 46748] | – | – | > 100 | > 100 | –
46 | O=C(NCCCN1CCCC1=O)c1cn(-c2ccccc2)c2ncccc12 [compound 46751] | > 100 | > 100 | – | – | –
47 | O=C(NCCCN1CCCC1=O)c1nn(-c2ccccc2)c2ncccc12 [compound 46752] | > 100 | > 100 | – | – | –
48 | COCCOc1ccc(C(F)(F)F)cc1NC(=O)Cn1cccc(F)c1=O [compound 46762] | – | – | > 100 | > 100 | –
49 | COc1ccc(C(F)(F)F)cc1NC(=O)Cn1cccc(Cl)c1=O [compound 46763] | – | – | 50 to 100 | > 100 | –
50 | COc1ccc(C(F)(F)F)cc1NC(=O)Cn1cccc(F)c1=O [compound 46765] | – | – | > 100 | > 100 | –
51 | COc1cc(C(F)(F)F)ccc1NC(=O)Cn1cc(C(F)(F)F)cc(Cl)c1=O [compound 46808] | – | – | 1 to 30 | > 100 | –
52 | COc1ccc(C(F)(F)F)cc1NC(=O)Cn1cc(C)cc(Cl)c1=O [compound 46809] | – | – | 1 to 10 | > 100 | –
53 | O=C(NCCCN1CCCC1=O)c1nn(-c2ccccc2)c2c1CCCC2 [compound 46819] | > 50 | > 50 | – | – | –
54 | O=C(NCCCN1CCCC1=O)c1nn(-c2ccccc2)c2ccc(F)cc12 [compound 46820] | 50 to 100 | > 100 | – | – | –
55 | O=C(NCCCN1CCCC1=O)c1c[nH]nc1C1CC1 [compound 46821] | > 100 | > 100 | – | – | –
56 | N#Cc1c(NCCCN2CCCC2=O)c2ccccc2[nH]c1=O [compound 46822] | > 100 | > 100 | – | – | –
57 | CCOC(=O)c1c(NCCCN2CCCC2=O)c2ccccc2[nH]c1=O [compound 46823] | > 100 | > 100 | – | – | –
58 | Cc1cccc(-n2cc(C(=O)NCCCN3CCCC3=O)c3ccccc32)c1 [compound 46824] | > 100 | > 100 | – | – | –
59 | O=C(NCCCN1CCCC1=O)c1c(-c2ccccc2)[nH]c2ccccc2c1=O [compound 46825] | > 100 | > 100 | – | – | –
60 | O=C(NCCCN1CCCC1=O)c1n[nH]c2ccccc12 [compound 46826] | > 100 | > 100 | – | – | –
61 | O=C(Nc1ccccc1)c1c(NCCCN2CCCC2=O)c2ccccc2[nH]c1=O [compound 46827] | > 100 | > 100 | – | – | –
62 | COc1ccc(C#N)cc1NC(=O)Cn1cc(C(F)(F)F)cc(Cl)c1=O [compound 46828] | – | – | 50 to 100 | 50 to 100 | –
63 | COc1ccc(F)cc1NC(=O)Cn1cc(C(F)(F)F)cc(Cl)c1=O [compound 46867] | – | – | 10 to 30 | 50 to 100 | –
64 | COc1ccc(OC)c(NC(=O)Cn2cc(C(F)(F)F)cc(Cl)c2=O)c1 [compound 46868] | – | – | > 100 | > 100 | –
